# Laboratory results as given in patent US20230218559A1, “Compositions and Methods for Treating Aging and Age-Related Diseases and Symptoms” (The Regents of the University of California, priority 2014, published 2023).
# What was measured:
# [1] = system: normal human diploid fibroblasts WI-38; assay: Cell growth assay; format: cell-based; settings: data not shown
# Protocol: (§1) Cells were seeded in 12-well plates and after overnight incubation were treated with indicated concentrations of each compound. After harvesting, cells were stained by Acridine Orange (AO) and DAPI. Cell number and viability were measured based on AO and DAPI fluorescence measured by NC3000 (Chemometec) following the manufacturer's instructions.
# [2] = system: Jurkat; assay: Cell growth assay; format: cell-based, human; settings: data not shown
# Protocol: as §1
# [3] = system: A549; assay: Cell growth assay; format: cell-based, human; settings: data not shown
# Protocol: as §1
# [4] = system: HEK 293 cells; assay: Cell growth assay; format: cell-based, human; settings: data not shown
# Protocol: as §1
# [5] = system: AMPK; assay: AMPK (T172) phosphorylation by Western blotting; format: cell-based, human; settings: WI-38 cells; higher concentration of octyl α-KG
# Protocol: Western blotting was performed with specific antibodies against P-AMPK T172 (Cell Signaling Technology, 2535S) and AMPK (Cell Signaling Technology, 2603S). […] Number of GFP::LGG-1 containing puncta was quantitated using ImageJ. Bars indicate the mean. […] HEK-293 (Panel d) or HeLa (Panel e) cells were lysed in M-PER buffer (Thermo Scientific, 78501) with the addition of protease inhibitors (Roche, 11836153001) and phosphatase inhibitors (50 mM NaF, 10 mM β-glycerophosphate, 5 mM sodium pyrophosphate, 2 mM Na3VO4). Protein concentration of the lysate was measured by BCA Protein Assay kit (Pierce, 23227). […] Pronase (Roche, 10165921001) digestions were performed for 20 minutes at room temperature, and stopped by adding SDS loading buffer and immediately heating at 95° C. for 5 minutes (for Panel d) or 70° C. for 10 minutes (for Panel e). Samples were subjected to SDS-PAGE on 4-12% Bis-Tris gradient gel (Invitrogen, NP0322BOX) and Western blotted with specific antibodies against ATP5B (Santa Cruz, sc58618), mTOR (Cell Signaling Technology, 2972), or GAPDH (Ambion, AM4300). ImageJ was used to quantify the mTOR/GAPDH and ATP5B/GAPDH ratios.
# [6] = system: WI-38 cells; assay: Assay for ATP levels in normal human fibroblasts; format: cell-based; settings: 2 hours
# Protocol: Normal human diploid fibroblast WI-38 (ATCC, CCL-75) cells were seeded in 96-well plates at 2×10^4 cells per well. […] ATP levels were measured using the CellTiter-Glo luminescent ATP assay (Promega, G7572); luminescence was read using Analyst HT (Molecular Devices). In parallel, identically treated cells were lysed in M-PER (Thermo Scientific, 78501) to obtain protein concentration by BCA Protein Assay kit (Pierce, 23223). ATP levels were normalized to protein content. Statistical analysis was performed using GraphPad Prism (unpaired t-test).
# [7] = target: T1, Complex V (Bos taurus, UniProt P00829); assay: Complex V activity assay (MitoTox OXPHOS kit); format: biochemical, bovine
# T1 construct: from bovine heart mitochondria; purchased Abcam ab109907; host or cells: bovine heart mitochondria
# Protocol: Complex V activity was assayed using the MitoTox OXPHOS Complex V Activity Kit (Abcam, ab109907). Vehicle (H2O) or α-KG was mixed with the enzyme prior to the addition of phospholipids. […] Relative Complex V activity was compared to vehicle. Oligomycin (Sigma, O4876) was used as a positive control for the assay.
# [8] = system: mammalian cells; assay: Oxygen consumption rate in cells (Seahorse XF-24); format: cell-based; settings: treated cells, 1 hour
# Protocol: OCR measurements were made using a Seahorse XF-24 analyzer (Seahorse Bioscience) (Wu, et al. Am J Physiol Cell Physiol 292, C125-136 (2007)). […] Oxygen consumption rates were measured 3 times under basal conditions and normalized to protein concentration per well. Statistical analysis was performed using GraphPad Prism.
# [9] = system: DBA2/J female mice; assay: Isoproterenol-induced hypertrophy and heart failure in mice; format: in vivo, mouse; settings: ISO plus octyl α-KG, 3 weeks, echocardiography; ISO+octanol 49.2%±1.9
# Protocol: Hypertrophy and heart failure were induced by chronic infusion of isoproterenol for 3 weeks at a dose of 30 μg per gram bodyweight per day using osmotic mini-pumps (Alzet, model 1004). DBA2/J female mice at 8 weeks old were used for this study. […] ISO-induced cardiac hypertrophy and cardiomyopathy were determined at the end of experiment by assessing heart size and heart to body weight ratio.
# More importantly, cardiac output was assessed and the cardiac ejection fractions were determined by echocardiography. The cardiac EF for the basal levels before the treatment is 55.1%±2.6 (n=14).
# [10] = system: U87 cells; assay: Cell growth and viability assays in U87 cells; format: cell-based, human
# Protocol: IDH1(R132H) mutant or IDH1(WT) expressing U87 cells were as reported (Li, et al. Neuro Oncol 15, 57-68). […] All the cells were cultured at 37° C. and 5% CO2. Cells were transfected with indicated siRNA using Thermo Scientific DharmaFECT Transfection Reagent 1 by following the manufacturer's instructions.
# as §1
# [11] = system: mTOR; assay: Assay for mammalian TOR (mTOR) pathway activity; format: cell-based, human; settings: U87 cells
# Text: Specific antibodies used: P-S6K T389 (Cell Signaling Technology, 9234), S6K (Cell Signaling Technology, 9202S), P-4E-BP1 S65 (Cell Signaling Technology, 9451S), 4E-BP1 (Cell Signaling Technology, 9452S), P-AKT S473 (Cell Signaling Technology, 4060S), AKT (Cell Signaling Technology, 4691S), P-ULK1 S757 (Cell Signaling Technology, 6888), ULK1 (Cell Signaling Technology, 4773S), and GAPDH (Santa Cruz Biotechnology, 25778).
# [12] = system: U87 cells; assay: Assay for ATP levels in U87 cells; format: cell-based, human; settings: mitochondrial oxidative phosphorylation conditions, 2 hours
# Protocol: For 2-HG experiments, U87 cells were seeded in 96-well plates at 2×10^4 cells per well and treated with indicated compound for 2 hours in triplicate. ATP levels were measured using the CellTiter-Glo luminescent ATP assay (Promega, G7572); luminescence was read using Analyst HT (Molecular Devices). […] Statistical analysis was performed using GraphPad Prism (unpaired t-test).
# [13] = target: T2, ATP synthase (Mus musculus, UniProt P56480); assay: ATP synthase enzyme inhibition kinetics; format: biochemical
# T2 construct: Mitochondria were isolated from mouse liver as described above; from tissue; host or cells: isolated mouse liver mitochondria
# Protocol: ATP synthesis enzyme inhibition kinetic analysis was performed using isolated mitochondria. Mitochondria were isolated from mouse liver as described above. The final mitochondrial pellet was resuspended in MAS buffer supplemented with 5 mM sodium ascorbate (Sigma, A7631) and 5 mM TMPD (Sigma, T7394).
# ATP synthesis was monitored by the increase in luminescence over time by a luminometer (Analyst HT, Molecular Devices). ATP synthase-independent ATP formation, derived from the oligomycin-insensitive luminescence, was subtracted as background. The initial velocity of ATP synthesis was calculated from the slope of the first 3 minutes of the reaction, before the velocity begins to decrease. Enzyme inhibition kinetics was analyzed by nonlinear regression least squares fit using GraphPad Prism.
# [14] = target: mitochondrial ATP synthase (Complex V) (Mus musculus, UniProt P56480); assay: Mice fed octyl α-KG in chow; heart mitochondria OCR
# Protocol: The mice were sacrificed, hearts harvested, and mitochondria isolated. The oxygen consumption rate (OCR) was measured using a Seahorse XF-24 Analyzer (Seahorse Bioscience).
# [15] = system: neonatal rat cardiomyocytes; assay: Isoproterenol/phenylephrine-induced hypertrophy in isolated neonatal cardiomyocytes; format: cell-based; settings: 200 μM
# Protocol: Cardiomyocytes of neonatal rats were isolated by collagenase digestion and cultured overnight in DMEM containing 10% fetal calf serum (FCS), and then culture medium was changed to serum-free high glucose insulin-transferrin-sodium selenite (ITS). Hypertrophy of cardiomyocytes was induced by treating the cells with 1 mM isoproterenol (ISO) or phenylephrine (PE) for 48 hours.
# [16] = system: C. elegans; assay: Oxygen consumption rate in living C. elegans; format: in vivo, Caenorhabditis elegans; settings: worms, 8 mM, day 2 of adulthood
# Protocol: OCR was assessed on day 2 of adulthood. […] Oxygen consumption rates were measured 7 times under basal conditions and normalized to the number of worms counted per well. The experiment was repeated twice. Statistical analysis was performed using Microsoft Excel (t-test, two-tailed, two-sample unequal variance).
# [17] = system: C. elegans; assay: Assay for ATP levels in C. elegans; format: in vivo, Caenorhabditis elegans; settings: 8 mM; day 2, P=0.969; day 8, P=0.012
# Protocol: Assay for ATP levels in C. elegans. […] ATP levels were normalized to number of worms. Statistical analysis was performed using Microsoft Excel (t-test, two-tailed, two-sample unequal variance).
# [18] = target: T3, ATP-2 (Caenorhabditis elegans, UniProt P46561); assay: DARTS using C. elegans lysate; format: binding; settings: worm lysate
# T3 construct: from tissue; host or cells: lysate of whole wild-type C. elegans
# Protocol: For DARTS using C. elegans (FIG. 6, Panel a), wild-type animals of various ages were grown on NGM/OP50 plates, washed 4 times with M9 buffer, and immediately placed in the −80° C. freezer. […] All steps were performed on ice or at 4° C. to help prevent premature protein degradation. TNC buffer (50 mM Tris-HCl pH 8.0, 50 mM NaCl, 10 mM CaCl2) was added to the worm lysates.
# [19] = target: T4, ATP5B (Homo sapiens, UniProt P06576); assay: DARTS (drug affinity responsive target stability) with Western blotting; format: binding; settings: human cell lysates, Pronase digestion
# T4 construct: HeLa cells were lysed in M-PER buffer; endogenous in cells; host or cells: HeLa (alpha-KG); U87 (2-HG)
# Protocol: Target identification using DARTS was conducted in accordance with methods know in the art. […] The resulting digests were separated by SDS-PAGE and visualized using SYPRO Ruby Protein Gel Stain (Invitrogen, S12000).
# GAPDH (Ambion, AM4300) was used as a negative control.
# For 2-HG experiments, DARTS was performed as described above.
# [20] = system: T5, Complex IV; assay: Complex IV activity assay (MitoTox OXPHOS kit); format: biochemical, bovine; settings: relative to vehicle (H2O)
# T5 construct: from bovine heart mitochondria; purchased Abcam ab109906; host or cells: bovine heart mitochondria
# [21] = system: lactate dehydrogenase; assay: Coupling-enzyme control of SMP ATPase assay; format: biochemical; settings: up to 10 mM, external ADP added
# Protocol: (§2) The SMP ATPase activity was assayed using the Complex V Activity Buffer as above. The production of ADP is coupled to the oxidation of NADH to NAD^+ through pyruvate kinase and lactate dehydrogenase. […] The absorbance decrease of NADH at 340 nm correlates to ATPase activity.
# [22] = system: pyruvate kinase; assay: Coupling-enzyme control of SMP ATPase assay; format: biochemical; settings: up to 10 mM, external ADP added
# Protocol: as §2
# [23] = target: T6, mTOR (Homo sapiens, UniProt P42345); assay: DARTS for TOR in HEK-293 / HeLa lysates; format: binding; settings: HEK-293 or HeLa lysates
# T6 construct: HEK-293 (Panel d) or HeLa (Panel e) cells were lysed in M-PER buffer; endogenous in cells; host or cells: HEK-293; HeLa
# Text: Number of GFP::LGG-1 containing puncta was quantitated using ImageJ. Bars indicate the mean. […] ImageJ was used to quantify the mTOR/GAPDH and ATP5B/GAPDH ratios.
# T4 sequence (P06576 48-529): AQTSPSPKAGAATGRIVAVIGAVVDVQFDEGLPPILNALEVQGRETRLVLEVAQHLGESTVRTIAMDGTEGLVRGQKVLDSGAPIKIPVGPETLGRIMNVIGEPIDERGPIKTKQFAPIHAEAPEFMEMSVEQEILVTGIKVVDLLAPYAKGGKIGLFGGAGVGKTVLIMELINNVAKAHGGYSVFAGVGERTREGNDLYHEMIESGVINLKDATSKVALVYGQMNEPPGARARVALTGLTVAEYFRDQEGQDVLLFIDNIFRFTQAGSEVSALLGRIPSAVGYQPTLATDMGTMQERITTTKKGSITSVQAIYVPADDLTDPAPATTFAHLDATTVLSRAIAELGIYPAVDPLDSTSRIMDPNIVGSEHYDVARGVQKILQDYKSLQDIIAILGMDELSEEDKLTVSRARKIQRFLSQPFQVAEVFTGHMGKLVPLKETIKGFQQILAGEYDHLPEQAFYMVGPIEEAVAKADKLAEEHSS
# T3 sequence (P46561 whole entry): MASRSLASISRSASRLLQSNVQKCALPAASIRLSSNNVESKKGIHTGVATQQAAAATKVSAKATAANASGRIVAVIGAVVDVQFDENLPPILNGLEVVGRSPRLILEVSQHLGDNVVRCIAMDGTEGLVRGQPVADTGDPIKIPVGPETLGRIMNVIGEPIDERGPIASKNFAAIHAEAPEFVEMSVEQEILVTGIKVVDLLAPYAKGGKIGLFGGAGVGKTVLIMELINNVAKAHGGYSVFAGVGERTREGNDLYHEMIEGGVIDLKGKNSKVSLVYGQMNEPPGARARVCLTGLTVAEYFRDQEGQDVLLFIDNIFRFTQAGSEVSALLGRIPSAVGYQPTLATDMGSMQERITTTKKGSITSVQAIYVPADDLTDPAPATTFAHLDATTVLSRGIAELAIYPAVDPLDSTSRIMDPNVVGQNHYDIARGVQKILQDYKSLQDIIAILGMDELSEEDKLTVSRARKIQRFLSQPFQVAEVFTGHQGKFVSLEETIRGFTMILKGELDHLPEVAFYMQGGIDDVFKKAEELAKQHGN
compound,measurement,setting,value
"O=C(O)CCC(O)C(=O)O (stereo not drawn) [2-HG, 2-hydroxypentanedioate]",cell growth,[1],Growth inhibition
same,cell growth,[2],Growth inhibition
same,cell growth,[3],Growth inhibition
same,cell growth,[4],Growth inhibition
"CCCCCCCCOC(=O)C(=O)CCC(=O)O [octyl α-KG, octyl α-ketoglutarate]",P-AMPK (T172),[5],increased
same,ATP levels,[6],reduced
same,reversibility of ATP synthase inhibition,"[7]; α-KG released from octyl α-KG, not shown",reversible
same,oxygen consumption rates,[8],Decreased
same,cardiac ejection fraction,[9],53.8%±2.3
same,viability upon glucose starvation,[10]; 400 μM and 800 μM,decreased
same,growth rate,"[10]; glucose medium, to a lesser extent, not shown",reduced
same,growth rate,"[10]; glucose-free medium, 400 μM and 800 μM",decreased growth rate
same,phosphorylation of S6K (T389),[11],decreased
same,phosphorylation of mTOR substrates,[11],decreased
same,ATP content,[12],decreased
same,apparent Vmax of ATP synthase,"[13]; 200 μM octyl α-KG, octanol vehicle 53.9",26.7
same,mode of ATP synthase inhibition,[13]; α-KG released from octyl α-KG,uncompetitive inhibition
same,state 3 respiration of heart mitochondria,"[14]; mice fed 1.5 mg/g body weight in chow for one week, versus octanol control mice",lower
same,physiological or behavioral abnormality,"[14]; mice, 1.5 mg/g body weight in chow, after 5 days feeding",no abnormality
same,ISO- and PE-induced overexpression of ANF and BNP,[15],suppressed
same,ISO-induced hypertrophy,"[15]; 1 mM isoproterenol, 48 hours",completely abolished
"O=C(O)CCC(=O)C(=O)O [α-KG, α-ketoglutarate]",oxygen consumption rates,[16],Decreased
same,ATP levels,[17],reduced
same,ATP-2 protein protection from Pronase digestion,[18],protection
same,activity of Complex V,[7]; bovine heart mitochondria,inhibits
same,binding to ATP5B by DARTS,[19],binding specifically
same,Complex IV activity,[20],does not affect
same,activity of lactate dehydrogenase,[21],did not affect
same,activity of pyruvate kinase,[22],did not affect
same,binding to TOR by DARTS,[23],does not bind
